Assay results as given in PMC3058569 (Chemical biology & drug design, 2010).
≈ marks a conversion by molar mass, not a printed value. Where “and” joins values, the source holds several entries; their conditions need not be identical. Identical values can stand only once. Each block holds one molecule with its values, some of them ahead of it.

Columns and labels:
[1] = test system: Cryptococcus neoformans; assay: Antifungal susceptibility testing, modified CLSI method; type: cell-based
[2] = test system: A. fumigatus; assay: as above; type: cell-based; details: Aspergillus fumigatus
[3] = test system: L. donovani promastigotes; assay: Antileishmanial activity, Alamar Blue assay; type: cell-based, Leishmania donovani; details: for IC50 / IC90: Leishmania donovani; for IC50: read-out: Antileishmanial L. donovani IC50; for IC90: read-out: Antileishmanial L. donovani IC90; for Antileishmanial L. donovani IC50 / Antileishmanial L. donovani IC90: promastigotes; for Antileishmanial L. donovani IC90: 90% inhibition of leishmanial growth
[4] = test system: P. falciparum chloroquine sensitive (D6) clone; assay: In vitro antimalarial activity, plasmodial LDH activity; type: cell-based, Plasmodium falciparum; details: for IC50: Plasmodium falciparum, D6, read-out: Antimalarial P. falciparum D6 Clone IC50
[5] = test system: P. falciparum chloroquine resistant (W2) clone; assay: microbe, parasite or virus in culture; type: cell-based, Plasmodium falciparum; details: for IC50: Plasmodium falciparum, W2, read-out: Antimalarial P. falciparum W2 Clone IC50
[6] = test system: Mycobacterium intracellulare; assay: Susceptibility by modified Alamar Blue procedure; type: cell-based
[7] = test system: Staphylococcus aureus; assay: Antibacterial susceptibility testing, modified CLSI method; type: cell-based; details: for IC50 Antibacterial S. aureus: 50% inhibition of bacterial growth; for IC50 against S. aureus and methicillin resistant S. aureus: range over both compounds and both strains (abstract)
[8] = test system: methicillin resistant S. aureus (MRS); assay: as above; type: cell-based, Staphylococcus aureus; details: for IC50 Antibacterial MRS: 50% inhibition of bacterial growth
[9] = test system: C. glabrata; assay: Antifungal susceptibility testing, modified CLSI method; type: cell-based, Candida glabrata; details: 50% inhibition of fungal growth
[10] = test system: BSL-1 and 2 model organisms (fungi, bacteria, P. falciparum, L. donovani); assay: Overall in vitro antimicrobial and antiprotozoal screen; type: cell-based; details: for Activity against all other test organisms: fungi and bacteria other than S. aureus and MRS; for Antimicrobial or antiprotozoal activity (overall): all test organisms
[11] = lowest concentration that allows no detectable growth

- IC50 Antifungal C. neoformans ([1]; 50% inhibition of fungal growth): 1.28 µg/mL (≈ 1.39 µM)
- MIC ([1]; Cryptococcus neoformans, read-out: MIC Antifungal C. neoformans): 2.5 µg/mL (≈ 2.71 µM)
- IC50 ([2]; read-out: IC50 Antifungal A. fumigatus): 0.98 µg/mL (≈ 1.06 µM)
- MIC ([2]; read-out: MIC Antifungal A. fumigatus): 2.5 µg/mL (≈ 2.71 µM)
- IC50 [3]: 0.2 µg/mL (≈ 0.216 µM)
- IC90 [3]: 0.4 µg/mL (≈ 0.433 µM)
Compound: C[C@@H]1[C@H](O)[C@@H](C)/C=C/C=C/C=C/C=C/C=C/C=C/C=C/[C@H](O[C@@H]2O[C@H](C)[C@@H](O)[C@H](N)[C@@H]2O)C[C@@H]2O[C@](O)(C[C@@H](O)C[C@@H](O)[C@H](O)CC[C@@H](O)C[C@@H](O)CC(=O)O[C@H]1C)C[C@H](O)[C@H]2C(=O)O [Amphotericin B]

Compound: C[C@@H]1CC[C@H]2[C@@H](C)C(=O)O[C@@H]3O[C@@]4(C)CC[C@@H]1[C@]32OO4 [Artemisinin]
- IC50 [4]: 0.01 µg/mL (≈ 0.0354 µM)
- IC50 [5]: 0.0065 µg/mL (≈ 0.023 µM)

Compound: CCN(CC)CCCC(C)Nc1ccnc2cc(Cl)ccc12 (stereo not shown) [Chloroquine]
- IC50 [4]: 0.015 µg/mL (≈ 0.0469 µM)
- IC50 [5]: 0.12 µg/mL (≈ 0.375 µM)

- MIC ([6]; Mycobacterium intracellulare, read-out: MIC Antibacterial M. intracellulare): 0.5 µg/mL (≈ 1.51 µM)
Compound: O=C(O)c1cn(C2CC2)c2cc(N3CCNCC3)c(F)cc2c1=O [Ciprofloxacin]
- IC50 ([6]; Mycobacterium intracellulare, read-out: IC50 Antibacterial M. intracellulare): 0.39 µg/mL (≈ 1.18 µM)

Compound: NC(=O)c1cc[n+](CCCBr)cc1.[Br-] [Compound 17]
- Antimalarial P. falciparum D6 Clone IC50 ([4]; chloroquine sensitive clone): 3.7 µg/mL
- Antimalarial P. falciparum W2 Clone IC50 ([5]; chloroquine resistant clone): 4.0 µg/mL

- IC50 Antibacterial S. aureus [7]: 15.3 µg/mL and 15.27 µg/mL
- IC50 against S. aureus and methicillin resistant S. aureus [7]: 12.2 to 17.7 µg/mL
- IC50 Antifungal C. glabrata [9]: >20 µg/mL
- Antileishmanial L. donovani IC50 [3]: 19 µg/mL
- Antileishmanial L. donovani IC90 [3]: 40 µg/mL
Compound: ON=Cc1cccc[n+]1Cc1ccc(Br)s1.[Cl-] [Compound 21]
- IC50 Antibacterial MRS [8]: 14.2 µg/mL and 14.19 µg/mL
- Activity against all other test organisms [10]: inactive

Compound: ON=Cc1cccc[n+]1Cc1csc2ccccc12.[Cl-] [Compound 24, 1-(Benzothiophene-3-yl)-methyl-2-hydroxyiminomethylpyridinium chloride]
- IC50 Antibacterial S. aureus [7]: 12.2 µg/mL and 12.23 µg/mL
- MIC Antibacterial S. aureus [7, 11]: 20 µg/mL
- IC50 against S. aureus and methicillin resistant S. aureus [7]: 12.2 to 17.7 µg/mL
- IC50 Antibacterial MRS [8]: 17.7 µg/mL and 17.72 µg/mL
- MIC Antibacterial MRS [8, 11]: 20 µg/mL
- IC50 Antibacterial M. intracellulare ([6]; 50% inhibition of bacterial growth): >20 µg/mL
- Antileishmanial L. donovani IC50 [3]: 18 µg/mL
- Antileishmanial L. donovani IC90 [3]: 40 µg/mL
- Activity against all other test organisms [10]: inactive

Compound: O/N=C/c1cc[n+](COC[n+]2ccc(/C=N/O)cc2)cc1 [Compound 37, obidoxime, reference compound]
- Antimicrobial or antiprotozoal activity (overall) [10]: completely devoid of any antimicrobial or antiprotozoal activities

Compound: ON=Cc1cc[n+](CCC[n+]2ccc(/C=N/O)cc2)cc1 [Compound 42, trimedoxime, reference compound]
- Antimicrobial or antiprotozoal activity (overall) [10]: completely devoid of any antimicrobial or antiprotozoal activities

- IC50 [3]: 1.2 µg/mL (≈ 3.52 µM)
- IC90 [3]: 5 µg/mL (≈ 14.7 µM)
Compound: N=C(N)c1ccc(OCCCCCOc2ccc(C(=N)N)cc2)cc1 [Pentamidine, reference compound]
